In assay [1] the test system is ACC1. To be noted: ACC1 isolated from rat, mouse, monkey and human; cited from earlier work.
The subject of assay [2] is ACC2. The settings on record: ACC2 isolated from rat, mouse, monkey and human; cited from earlier work.
Assay [3] deals with ACC1 (Homo sapiens (Human), UniProt Q13085). As to the kind of experiment: In vitro ACC inhibition assay (ADP-Glo), ACC1. It counts as biochemical. As for the experimental part: (§1) Compounds of the present invention were evaluated in an in vitro ACC inhibition assay as described by Harwood, et al, 2003, the entirety of which is incorporated herein by reference.
(§2) In Vitro Acetyl-CoA Carboxylase (ACC) Inhibition Assay
(§3) An exemplary procedure for the in vitro ACC inhibition assay, which can be used to determine the inhibitory action of compounds of the invention toward either ACC1 or ACC2, follows. The ADP-Glo™ Kinase Assay kit from Promega was used. The ADP-Glo™ Kinase Assay is a luminescent ADP detection assay to measure enzymatic activity by quantifying the amount of ADP produced during an enzyme reaction. The assay is performed in two steps; first, after the enzyme reaction, an equal volume of ADP-Glo™ Reagent is added to terminate the reaction and deplete the remaining ATP. Second, the Kinase Detection Reagent is added to simultaneously convert ADP to ATP and allow the newly synthesized ATP to be measured using a luciferase/luciferin reaction. Luminescence can be correlated to ADP concentrations by using an ATP-to-ADP conversion curve. The detailed procedure is as follows. 50 μL of the compound being tested (600 uM in DMSO) was added to a 384-well dilution plate. The compound was diluted 1:3 in succession in DMSO for each row for 11 wells. 0.5 μL ACC2 working solution was added to 384-well white Optiplate assay plate. 0.5 μL diluted compound solution in each column from step 2 to assay plate, each row containing 2 replicates. […] The plates were incubated at room temperature for 15 minutes. 5 μL substrate working solution was added to each well to initiate reaction. Final ACC2 reaction concentrations consist of: 5 nM ACC2, 20 μM ATP, 20 μM acetyl-CoA, 12 mM NaHCO3, 0.01% Brij35, 2 mM DTT, 5% DMSO, test compound concentrations: 30 μM, 10 μM, 3.33 μM, 1.11 μM, 0.37 μM, 0.123 μM, 0.0411 μM, 0.0137 μM, 0.00457 μM, 0.00152 μM, and 0.00051 μM. Plates were incubated at room temperature for 60 minutes. 10 μL ADP glo reagent was added. Plates were incubated at room temperature for 40 minutes. 20 μL kinase detection reagent was added. Plates were incubated at room temperature for 40 minutes, then read on a Perkin Elmer EnVision 2104 plate reader for luminescence as Relative Light Units (RLU).
(§4) Data for each concentration, as well as the positive and negative controls were averaged, and the standard deviation calculated. Percent inhibition was calculated by the formula: 100×(average negative control-compound)/(average negative control-average positive control). The IC50 for each compound was calculated by fitting the data with a non-linear regress ion equation: Y=Bottom+(Top−Bottom)/(1+10((Log IC50−X* HillSlope)), where X is the log of compound concentration and Y is percent inhibition.
Background: In ADP-Glo the light output rises with the ADP produced.

The target of assay [4] is ACC2 (Homo sapiens (Human), UniProt O00763). As to the kind of experiment: In vitro ACC inhibition assay (ADP-Glo), ACC2. It counts as biochemical. As for the experimental part: as §1, §2, §3, §4
The subject of assay [5] is HepG2. Kind of assay: EC50 in HepG2. The assay is classed as cell-based.
Assay [6] relates to MDA-MB-468. Kind of assay: EC50 in MDA-MB-468. It counts as cell-based. To be noted: MDA-MB-468; read-out: EC50 (μM) MDA-MB-468.
Assay [7] deals with A549. Kind of assay: EC50 in A549. The settings on record: A549; read-out: EC50 (μM) A549. It counts as cell-based.
[8] abbreviates: 5 nM ACC2, 20 μM ATP, 20 μM acetyl-CoA, read-out: IC50 (μM) ACC2.
Where [9] appears, read: ND630 versus RJ compounds, isoform not given, read-out: IC50 (μM) ND630/RJ-cmps(%).
Where [10] appears, read: HepG2, read-out: EC50 (μM) HepG2.
Setting [11] is: ND630 versus RJ compounds, read-out: EC50 (μM) ND630/RJ-cmps(%).

pIC50: −log10 of the molar value. Where two headings read alike, the source gives them in different places.

Sequence of ACC2 (Homo sapiens (Human), UniProt O00763) (O00763 whole entry, species assumed): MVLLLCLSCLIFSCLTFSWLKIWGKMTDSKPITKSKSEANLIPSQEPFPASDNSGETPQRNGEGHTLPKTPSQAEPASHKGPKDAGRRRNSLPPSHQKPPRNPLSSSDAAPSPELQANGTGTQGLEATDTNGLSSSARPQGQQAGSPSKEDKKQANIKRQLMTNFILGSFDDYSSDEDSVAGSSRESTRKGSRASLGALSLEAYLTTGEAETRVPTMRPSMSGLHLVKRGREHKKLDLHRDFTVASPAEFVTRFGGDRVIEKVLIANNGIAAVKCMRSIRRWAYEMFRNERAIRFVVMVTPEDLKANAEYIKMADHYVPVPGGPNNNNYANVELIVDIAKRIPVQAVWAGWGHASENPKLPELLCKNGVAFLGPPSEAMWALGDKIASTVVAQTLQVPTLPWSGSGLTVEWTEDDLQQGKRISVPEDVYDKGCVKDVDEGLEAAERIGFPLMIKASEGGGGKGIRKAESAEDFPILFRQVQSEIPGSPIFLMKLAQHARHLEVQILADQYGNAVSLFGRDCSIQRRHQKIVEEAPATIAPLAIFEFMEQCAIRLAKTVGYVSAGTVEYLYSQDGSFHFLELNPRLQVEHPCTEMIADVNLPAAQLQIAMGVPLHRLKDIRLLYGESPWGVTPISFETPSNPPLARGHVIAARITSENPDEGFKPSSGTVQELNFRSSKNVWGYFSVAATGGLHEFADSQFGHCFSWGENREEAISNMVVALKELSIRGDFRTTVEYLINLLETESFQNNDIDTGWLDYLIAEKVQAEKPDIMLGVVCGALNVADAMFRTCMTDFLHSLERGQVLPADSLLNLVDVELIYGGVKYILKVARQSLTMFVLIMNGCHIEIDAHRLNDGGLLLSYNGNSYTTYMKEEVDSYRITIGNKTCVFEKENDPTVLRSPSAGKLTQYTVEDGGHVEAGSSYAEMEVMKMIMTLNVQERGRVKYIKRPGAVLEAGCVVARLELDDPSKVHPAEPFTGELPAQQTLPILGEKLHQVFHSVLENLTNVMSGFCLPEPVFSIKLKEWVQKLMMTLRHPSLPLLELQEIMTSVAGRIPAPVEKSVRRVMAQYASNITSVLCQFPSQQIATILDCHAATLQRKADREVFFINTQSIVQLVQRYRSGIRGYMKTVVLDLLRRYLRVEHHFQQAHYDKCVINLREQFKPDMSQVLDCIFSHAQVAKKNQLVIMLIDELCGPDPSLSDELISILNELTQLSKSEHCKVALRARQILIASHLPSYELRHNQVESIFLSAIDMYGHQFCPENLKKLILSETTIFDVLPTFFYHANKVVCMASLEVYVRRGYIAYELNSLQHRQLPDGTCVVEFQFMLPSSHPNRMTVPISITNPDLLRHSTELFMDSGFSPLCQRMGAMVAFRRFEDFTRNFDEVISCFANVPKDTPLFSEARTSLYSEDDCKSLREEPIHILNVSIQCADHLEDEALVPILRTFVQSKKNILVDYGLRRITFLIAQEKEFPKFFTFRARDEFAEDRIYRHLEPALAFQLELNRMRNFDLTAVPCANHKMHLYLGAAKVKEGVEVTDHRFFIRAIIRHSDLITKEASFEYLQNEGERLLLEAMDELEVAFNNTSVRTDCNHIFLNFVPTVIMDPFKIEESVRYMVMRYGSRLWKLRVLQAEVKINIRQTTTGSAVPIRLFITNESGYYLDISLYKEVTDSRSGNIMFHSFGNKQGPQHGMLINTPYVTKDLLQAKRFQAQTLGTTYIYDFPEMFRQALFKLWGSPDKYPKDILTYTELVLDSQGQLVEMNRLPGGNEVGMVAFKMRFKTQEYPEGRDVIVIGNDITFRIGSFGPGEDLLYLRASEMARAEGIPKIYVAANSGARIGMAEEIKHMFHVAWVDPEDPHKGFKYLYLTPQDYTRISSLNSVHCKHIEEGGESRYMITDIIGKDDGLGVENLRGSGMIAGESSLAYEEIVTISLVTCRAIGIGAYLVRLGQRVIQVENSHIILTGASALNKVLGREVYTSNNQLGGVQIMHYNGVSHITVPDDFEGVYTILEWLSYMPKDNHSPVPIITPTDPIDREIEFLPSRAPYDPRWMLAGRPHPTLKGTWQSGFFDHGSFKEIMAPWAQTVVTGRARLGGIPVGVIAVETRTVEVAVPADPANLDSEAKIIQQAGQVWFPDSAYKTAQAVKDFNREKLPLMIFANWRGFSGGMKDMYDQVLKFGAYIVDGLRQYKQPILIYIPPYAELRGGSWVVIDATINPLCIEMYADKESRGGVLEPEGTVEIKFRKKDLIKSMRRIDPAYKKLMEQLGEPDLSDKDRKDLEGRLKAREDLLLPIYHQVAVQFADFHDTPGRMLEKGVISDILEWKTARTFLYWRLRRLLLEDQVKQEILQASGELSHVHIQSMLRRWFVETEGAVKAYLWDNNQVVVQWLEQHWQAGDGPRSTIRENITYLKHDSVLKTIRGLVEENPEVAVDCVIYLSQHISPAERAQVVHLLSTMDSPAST

As a reminder, the pIC50 is the IC50 on a negative log10 scale, so that one unit is a factor of ten. Consider `O=C(c1c2ccccc2cc2ccccc12)N1CCC(N2CCC[C@@H](C(=O)N3CCOCC3)C2)CC1` [CP-640186], for which the pIC50 in assay [1] and in assay [2] was 7.22 each time.
Take `COc1ccccc1[C@H](Cn1c(=O)n(C2(C(=O)O)CC2)c(=O)c2c(C)c(-c3ncco3)sc21)OC1CCOCC1` [Example 33]: the IC50 in assay [3] was less than 0.001 µM; in assay [4] (setting [8]) it was less than 0.01 µM; in assay [4] (setting [9]), 0.003 to 0.005 µM. Besides, the EC50 in assay [5] (setting [10]) is 0.01 to 0.1 µM; in assay [5] (setting [11]), more than 1 µM; in assay [6], 1 to 10 µM; in assay [7], less than 0.5 µM.
Turning to `COc1ccccc1C(Cn1c(=O)n(C2(C(=O)O)CCCC2)c(=O)c2c(C)c(-c3ncco3)sc21)OC1CCOCC1` (stereo not drawn) [Example 36], the values for the IC50 in assay [3], in assay [4] (setting [8]) and in assay [4] (setting [9]) were 0.001 to 0.01 µM, less than 0.01 µM and 0.003 to 0.005 µM, respectively. Besides, the EC50 in assay [5] (setting [10]) was 0.01 to 0.1 µM; in assay [5] (setting [11]) it was more than 1 µM; in assay [6], more than 10 µM; in assay [7] it was 0.5 to 1 µM.
With `COc1ccccc1C(Cn1c(=O)n(C2(C(=O)O)CCC2)c(=O)c2c(C)c(-c3ncco3)sc21)OC1CCOCC1` (stereo not drawn) [Example 37], the IC50 is less than 0.001 µM in assay [3], less than 0.01 µM in assay [4] (setting [8]) and 0.005 to 0.01 µM in assay [4] (setting [9]). Further, the EC50 in assay [5] (setting [10]) was 0.01 to 0.1 µM; in assay [5] (setting [11]), more than 1 µM; in assay [6], more than 10 µM; in assay [7], less than 0.5 µM.
As for `COc1ccccc1[C@H](Cn1c(=O)n(C(C)(C)C(=O)O)c(=O)c2c(C)c(-c3ncco3)sc21)OC1CCOCC1` [Example 38], the IC50 was less than 0.001 µM in assay [3], less than 0.01 µM in assay [4] (setting [8]) and 0.005 to 0.01 µM in assay [4] (setting [9]). Also, the EC50 in assay [5] (setting [10]) was 0.01 to 0.1 µM; in assay [5] (setting [11]) it was more than 1 µM; in assay [6], more than 10 µM; in assay [7] it was less than 0.5 µM.

Values taken from patent US10995099B2, “Compounds and their uses as ACC inhibitors” (NANJING RUIJIE PHARMATECH CO., LTD., priority 2017, dated 2021).
